Test results taken from the supplement of paper PMC10733146.

Key:
Assay in all cases: viability relative to DMSO control (fraction); higher = less drug effect (more viable cells)
Settings in all cases: 48 h
[1] = tested on: primary ALL patient cells (S048)
Method in brief: (§1)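 Viability was measured as CellTiter-Glo luminescence relative to the median of 16 inner DMSO wells. Primary mononuclear tumour cells, fresh or cryopreserved, were Ficoll-isolated from blood or bone marrow or taken from processed lymph node. They were seeded at 4 × 10^4 cells per well into 384-well plates holding pre-plated compounds at five concentrations, one well each, and kept in RPMI-1640 with penicillin/streptomycin, L-glutamine and human serum at 37 °C and 5% CO2 for 48 h.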

[2] = tested on: primary ALL patient cells (S088)
Method in brief: as §1

[3] = tested on: primary AML patient cells (S002)
Method in brief: as §1

[4] = tested on: primary AML patient cells (S009)
Method in brief: as §1

[5] = tested on: primary AML patient cells (S017)
Method in brief: as §1

[6] = tested on: primary AML patient cells (S019)
Method in brief: as §1

[7] = tested on: primary AML patient cells (S021)
Method in brief: as §1

[8] = tested on: primary AML patient cells (S025)
Method in brief: as §1

[9] = tested on: primary AML patient cells (S055)
Method in brief: as §1

[10] = tested on: primary AML patient cells (S060)
Method in brief: as §1

[11] = tested on: primary AML patient cells (S071)
Method in brief: as §1

[12] = tested on: primary AML patient cells (S072)
Method in brief: as §1

[13] = tested on: primary AML patient cells (S079)
Method in brief: as §1

[14] = tested on: primary AML patient cells (S089)
Method in brief: as §1

[15] = tested on: primary AML patient cells (S091)
Method in brief: as §1

[16] = tested on: primary B-PLL patient cells (S016)
Method in brief: as §1

[17] = tested on: primary DLBCL patient cells (S082)
Method in brief: as §1

[18] = tested on: primary FL patient cells (S022)
Method in brief: as §1

[19] = tested on: primary FL patient cells (S087)
Method in brief: as §1

[20] = tested on: primary MCL patient cells (S053)
Method in brief: as §1

In the case of CCc1nc(C(N)=O)c(Nc2ccc(N3CCC(N4CCN(C)CC4)CC3)c(OC)c2)nc1NC1CCOCC1 [Gilteritinib], the viability ([1]; 0.024 µM) is reported as 0.876, the viability ([1]; 0.12 µM) is reported as 0.819 and the viability ([1]; 0.6 µM) is reported as 0.646. It also gave a viability ([1]; 3 µM) of 0.717, a viability ([1]; 15 µM) of 0.531 and a viability ([2]; 0.024 µM) of 0.698. The viability ([2]; 0.12 µM) was 0.545, the viability ([2]; 0.6 µM) was 0.388 and the viability ([2]; 3 µM) was 0.414. It also gave a viability ([2]; 15 µM) of 0.131, a viability ([3]; 0.024 µM) of 1.13 and a viability ([3]; 0.12 µM) of 1.01. The viability ([3]; 0.6 µM) was 0.766, the viability ([3]; 3 µM) was 0.592 and the viability ([3]; 15 µM) was 0.456. It also gave a viability ([4]; 0.024 µM) of 0.945, a viability ([4]; 0.12 µM) of 0.865 and a viability ([4]; 0.6 µM) of 0.9. For the same compound, the viability ([4]; 3 µM) was 0.675, the viability ([4]; 15 µM) was 0.986 and the viability ([5]; 0.024 µM) was 0.987. It also gave a viability ([5]; 0.12 µM) of 1.09, a viability ([5]; 0.6 µM) of 0.606 and a viability ([5]; 3 µM) of 0.5. It also gave a viability ([5]; 15 µM) of 0.47, a viability ([6]; 0.024 µM) of 1.12 and a viability ([6]; 0.12 µM) of 1.04. For the same compound, the viability ([6]; 0.6 µM) was 0.76, the viability ([6]; 3 µM) was 0.818 and the viability ([6]; 15 µM) was 0.771. The viability ([7]; 0.024 µM) was 1.04, the viability ([7]; 0.12 µM) was 1.07 and the viability ([7]; 0.6 µM) was 0.72. It also gave a viability ([7]; 3 µM) of 0.754, a viability ([7]; 15 µM) of 0.736 and a viability ([8]; 0.024 µM) of 0.888. It also gave a viability ([8]; 0.12 µM) of 0.862, a viability ([8]; 0.6 µM) of 0.751 and a viability ([8]; 3 µM) of 0.791. It also gave a viability ([8]; 15 µM) of 0.485, a viability ([9]; 0.024 µM) of 1.04 and a viability ([9]; 0.12 µM) of 1.03. For the same compound, the viability ([9]; 0.6 µM) was 0.573, the viability ([9]; 3 µM) was 0.638 and the viability ([9]; 15 µM) was 0.821. The viability ([10]; 0.024 µM) was 1, the viability ([10]; 0.12 µM) was 1.06 and the viability ([10]; 0.6 µM) was 0.965. It also gave a viability ([10]; 3 µM) of 0.663, a viability ([10]; 15 µM) of 0.428 and a viability ([11]; 0.024 µM) of 0.564. The viability ([11]; 0.12 µM) was 0.457, the viability ([11]; 0.6 µM) was 0.465 and the viability ([11]; 3 µM) was 0.551. For the same compound, the viability ([11]; 15 µM) was 0.878, the viability ([12]; 0.024 µM) was 0.983 and the viability ([12]; 0.12 µM) was 0.882. It also gave a viability ([12]; 0.6 µM) of 0.54, a viability ([12]; 3 µM) of 0.368 and a viability ([12]; 15 µM) of 0.285. The viability ([13]; 0.024 µM) was 1.26, the viability ([13]; 0.12 µM) was 0.887 and the viability ([13]; 0.6 µM) was 0.735. The viability ([13]; 3 µM) was 0.626, the viability ([13]; 15 µM) was 0.469 and the viability ([14]; 0.024 µM) was 0.956. The viability ([14]; 0.12 µM) was 0.552, the viability ([14]; 0.6 µM) was 0.512 and the viability ([14]; 3 µM) was 0.379. It also gave a viability ([14]; 15 µM) of 0.311, a viability ([15]; 0.024 µM) of 0.859 and a viability ([15]; 0.12 µM) of 0.734. For the same compound, the viability ([15]; 0.6 µM) was 0.238, the viability ([15]; 3 µM) was 0.122 and the viability ([15]; 15 µM) was 0.0937. For the same compound, the viability ([16]; 0.024 µM) was 0.818, the viability ([16]; 0.12 µM) was 0.819 and the viability ([16]; 0.6 µM) was 0.875. The viability ([16]; 3 µM) was 0.911, the viability ([16]; 15 µM) was 0.654 and the viability ([17]; 0.024 µM) was 1.14. It also gave a viability ([17]; 0.12 µM) of 0.761, a viability ([17]; 0.6 µM) of 0.409 and a viability ([17]; 3 µM) of 0.459. For the same compound, the viability ([17]; 15 µM) was 0.476, the viability ([18]; 0.024 µM) was 1.01 and the viability ([18]; 0.12 µM) was 0.925. The viability ([18]; 0.6 µM) was 0.907, the viability ([18]; 3 µM) was 0.789 and the viability ([18]; 15 µM) was 0.358. For the same compound, the viability ([19]; 0.024 µM) was 1.09, the viability ([19]; 0.12 µM) was 1.06 and the viability ([19]; 0.6 µM) was 0.865. For the same compound, the viability ([19]; 3 µM) was 0.807, the viability ([19]; 15 µM) was 0.422 and the viability ([20]; 0.024 µM) was 1.07. It also gave a viability ([20]; 0.12 µM) of 1.02, a viability ([20]; 0.6 µM) of 0.7 and a viability ([20]; 3 µM) of 0.707. The viability ([20]; 15 µM) was 0.733.
